Test results published in US11472778B2, “Hepatitis C virus NS3/4A protease inhibitors” (priority 2017, dated 2022).
Where two headings read alike, the source gives them in different places.

Experiments:
[1] = system: HCV replicon D168V variant in Huh7 cells; assay: microbe, parasite or virus in culture; format: cell-based, Hepatitis C virus; settings: for EC50: Hepatitis C virus; for Replicon EC50 (Fold change) D168V: Table 4, relative to WT replicon
Experimental: (§1) Mutations (R155K, A516T, D168A and D168V) were constructed by site-directed mutagenesis using a Con1 (genotype 1b) luciferase reporter replicon containing the H77 (genotype 1a) NS3 sequence.
Replicon RNA of each protease variant was introduced into Huh7 cells by electroporation. Replication was then assessed in the presence of increasing concentrations of protease inhibitors by measuring luciferase activity (relative light units) 96 h after electroporation. […]

[2] = system: wild-type HCV replicon in Huh7 cells; assay: Cell-based drug susceptibility (replicon) assay, wild-type; settings: Hepatitis C virus, read-out: Replicon EC50 (nM) WT
Experimental: as §1
(§2) Replicon RNA of each protease variant was introduced into Huh7 cells by electroporation. Replication was then assessed in the presence of increasing concentrations of protease inhibitors by measuring luciferase activity (relative light units) 96 h after electroporation.
(§3) Mutations (R155K, D168A and A156T) were constructed by site-directed mutagenesis using a Con1 (genotype 1b) luciferase reporter replicon containing the H77 (genotype 1a) NS3 sequence.^6 Replicon RNA of each protease variant was introduced into Huh7 cells by electroporation. Replication was then assessed in the presence of increasing concentrations of protease inhibitors by measuring luciferase activity (relative light units) 96 h after electroporation.

[3] = system: HCV replicon A156T variant in Huh7 cells; assay: microbe, parasite or virus in culture; format: cell-based, Hepatitis C virus; settings: for Replicon EC50 (Fold change) A156T: Table 4, relative to WT replicon
Experimental: as §1, §2, §3

[4] = system: HCV replicon R155K variant in Huh7 cells; assay: microbe, parasite or virus in culture; format: cell-based, Hepatitis C virus; settings: for EC50: Hepatitis C virus; for Replicon EC50 (Fold change) R155K: Table 4, relative to WT replicon
Experimental: as §1, §2, §3

[5] = system: HCV replicon D168A variant in Huh7 cells; assay: microbe, parasite or virus in culture; format: cell-based, Hepatitis C virus; settings: for EC50: Hepatitis C virus; for Replicon EC50 (Fold change) D168A: Table 4, relative to WT replicon
Experimental: as §1, §2, §3

[6] = molecular target: GT1a D168A NS3/4A protease; format: biochemical, Hepatitis C virus; settings: Table 3; Ki D168A relative to GT1a WT
Experimental: (§4) For each assay, 2 nM of NS3/4A protease (GT1, D168A and GT3) was pre-incubated at room temperature for 1 h with increasing concentration of inhibitors in assay buffer [50 mM Tris, 5% glycerol, 10 mM DTT, 0.6 mM LDAO, and 4% dimethyl sulfoxide]. Inhibition assays were performed in nonbinding surface 96-well black half-area plates (Corning) in a reaction volume of 60 μt. […] Three independent data sets were collected for each inhibitor with each protease construct.
as §4, with “(GT1a” for “(GT1, D168A”, “D168A)” for “GT3)”, “(50” for “[50”, “sulfoxide, pH 7.5).” for “sulfoxide].”, “non-binding” for “nonbinding”, “μL.” for “μt.”
(§5) For each assay, 2 nM of NS3/4A protease (GT1a, R155K and D168A) was pre-incubated at room temperature for 1 h with increasing concentration of inhibitors in assay buffer (50 mM Tris, 5% glycerol, 10 mM DTT, 0.6 mM LDAO, and 4% dimethyl sulfoxide, pH 7.5). Inhibition assays were performed in non-binding surface 96-well black half-area plates (Corning) in a reaction volume of 60 μL. […] Three independent data sets were collected for each inhibitor with each protease construct. […] Gibbs free energy of binding was calculated using the following equation: ΔG=RTlnKi

[7] = molecular target: T1, GT1a D168A NS3/4A protease (UniProt P27958, C1185S/D1194A, species not given); format: biochemical, Hepatitis C virus; settings: read-out: Ki (nM) GT1a D168A NS3/4A Protease
T1 construct: Ki (nM) GT1a D168A NS3/4A Protease
Experimental: as §4
(§6) For each assay, 2 nM of NS3/4A protease (GT1a and D168A) was pre-incubated at room temperature for 1 h with increasing concentration of inhibitors in assay buffer (50 mM Tris, 5% glycerol, 10 mM DTT, 0.6 mM LDAO, and 4% dimethyl sulfoxide, pH 7.5). Inhibition assays were performed in non-binding surface 96-well black half-area plates (Corning) in a reaction volume of 60 μL. […] Three independent data sets were collected for each inhibitor with each protease construct.
as §5

[8] = molecular target: T2, wild-type GT1a NS3/4A protease (UniProt P27958, C1185S, species not given); format: biochemical, Hepatitis C virus; settings: read-out: Ki (nM) GT1a WT NS3/4A Protease
T2 construct: Ki (nM) GT1a WT NS3/4A Protease
Experimental: as §4, §6, §5

[9] = Huh-7, read-out: Replicon EC50 (nM) D168V, Table 4
[10] = Huh-7, read-out: Replicon EC50 (nM) R155K, Table 4
[11] = Huh-7, read-out: Replicon EC50 (nM) D168A, Table 4
[12] = Huh-7, 96 h, read-out: Replicon EC50 (nM) D168V, Table 2, Huh7 cells, luciferase 96 h
[13] = Huh-7, 96 h, Table 2, Huh7 cells, luciferase 96 h
[14] = Hepatitis C virus, Huh-7, 96 h, read-out: Replicon EC50 (nM) A156T, Table 2, Huh7 cells, luciferase 96 h
[15] = Hepatitis C virus, Huh-7, read-out: Replicon EC50 (nM) A156T, Table 4
[16] = Huh-7, 96 h, read-out: Replicon EC50 (nM) R155K, Table 2, Huh7 cells, luciferase 96 h
[17] = Huh-7, 96 h, read-out: Replicon EC50 (nM) D168A, Table 2, Huh7 cells, luciferase 96 h

Row | SMILES | EC50 [1, 9] [nM] | EC50 ([2]; Huh-7, Table 4) [nM] | EC50 [4, 10] [nM] | EC50 [5, 11] [nM] | EC50 [1, 12] [nM] | Replicon EC50 (Fold change) D168V [1] | EC50 [2, 13] [nM] | Ki (Fold change) GT1a D168A NS3/4A Protease [6] | Ki ([7]; Table 1) [nM] | Ki ([7]; Table 3) [nM] | Ki ([8]; Table 1) [nM] | Ki ([8]; Table 3) [nM] | EC50 [3, 14] [nM] | EC50 [3, 15] [nM] | Replicon EC50 (Fold change) A156T [3] | EC50 [4, 16] [nM] | Replicon EC50 (Fold change) R155K [4] | EC50 [5, 17] [nM] | Replicon EC50 (Fold change) D168A [5] | other results
1 | C=C[C@@H]1C[C@]1(NC(=O)[C@@H]1C[C@@H]2CN1C(=O)[C@H](C(C)(C)C)NC(=O)O[C@@H]1C[C@H]1CCCCCc1nc3ccc(OC)cc3nc1O2)C(=O)NS(=O)(=O)C1CC1 [Compound 1, grazoprevir, reference compound] | 5.41 | 0.14 | 1.89 | 9.69 | – | – | – | – | – | – | – | – | – | – | – | – | – | – | – | EC50 ([1]; Huh-7, read-out: Replicon EC50 (nM) D168V, Table 9): 5.3 nM; EC50 ([2]; Huh-7, Table 9): 0.12 nM; EC50 ([3]; Hepatitis C virus, Huh-7, read-out: Replicon EC50 (nM) A156T, Table 9): 200 nM; EC50 ([3]; read-out: Replicon EC50 (nM) A156T, Table 2, Huh7 cells, luciferase 96 h): 238 nM; EC50 ([4]; Huh-7, read-out: Replicon EC50 (nM) R155K, Table 9): 1.9 nM; EC50 ([5]; Huh-7, read-out: Replicon EC50 (nM) D168A, Table 9): 11 nM
2 | COc1ccc2nc(C(C)C)c(O[C@@H]3C[C@H]4C(=O)N[C@]5(C(=O)NS(=O)(=O)C6CC6)C[C@H]5/C=C\CCCCC[C@H](NC(=O)OC(C)(C)C)C(=O)N4C3)nc2c1 [Compound 18e] | 23.7 | 1.43 | 5.02 | 15.3 | 23.7 | (17) fold | 1.43 | (56) fold | 239 | 239 ± 20 | 4.27 | 4.27 | 25.7 | 25.7 | (18) fold | 5.02 | (4) fold | 15.3 | (11) fold | –
3 | COc1ccc2nc(C(C)C)c(O[C@@H]3C[C@H]4C(=O)N[C@]5(C(=O)NS(=O)(=O)C6CC6)C[C@H]5/C=C\CCCCC[C@H](NC(=O)OC5CCCC5)C(=O)N4C3)nc2c1 [Compound 22e, Cyclopentyl ((2R,6S,13aS,14aR,16aS,Z)-14a-((cyclopropylsulfonyl)carbamoyl)-2-((3-isopropyl-7-methoxyquinoxalin-2-yl)oxy)-5,16-dioxo-1,2,3,5,6,7,8,9,10,11,13a,14,14a,15,16,16a-hexadecahydrocyclopropa[e]pyrrolo[1,2-a][1,4]diazacyclopentadecin-6-yl)carbamate] | 30.1 | 0.48 | 7.63 | 7.96 | 30.1 | (63) fold | 0.48 | (112) fold | 161 | 161 ± 11 | 1.44 | 1.44 | 32.1 | 32.1 | (67) fold | 7.63 | (16) fold | 7.96 | (17) fold | –
4 | O=C(N[C@H]1CCCCC/C=C\[C@@H]2C[C@@]2(C(=O)NS(=O)(=O)C2CC2)NC(=O)[C@@H]2C[C@@H](Oc3nc4ccccc4nc3-c3cccs3)CN2C1=O)OC1CCCC1 [Compound 22f, Cyclopentyl ((2R,6S,13aS,14aR,16aS,Z)-14a-((cyclopropylsulfonyl)carbamoyl)-5,16-dioxo-2-((3-(thiophen-2-yl)quinoxalin-2-yl)oxy)-1,2,3,5,6,7,8,9,10,11,13a,14,14a,15,16,16a-hexadecahydrocyclopropa[e]pyrrolo[1,2-a][1,4]diazacyclopentadecin-6-yl)carbamate] | 70 | 0.4 | 19.2 | 42.2 | 70 | (175) fold | 0.4 | (566) fold | 900 | 900 ± 81 | 1.59 | 1.59 | 183 | 183 | (458) fold | 19.2 | (48) fold | 42.2 | (106) fold | –
5 | CCc1nc2ccccc2nc1O[C@@H]1C[C@H]2C(=O)N[C@]3(C(=O)NS(=O)(=O)C4CC4)C[C@H]3/C=C\CCCCC[C@H](NC(=O)OC3CCCC3)C(=O)N2C1 [Compound 22g, Cyclopentyl ((2R,6S,13aS,14aR,16aS,Z)-14a-((cyclopropylsulfonyl)carbamoyl)-2-((3-ethylquinoxalin-2-yl)oxy)-5,16-dioxo-1,2,3,5,6,7,8,9,10,11,13a,14,14a,15,16,16a-hexadecahydrocyclopropa[e]pyrrolo[1,2-a][1,4]diazacyclopentadecin-6-yl)carbamate] | 19.3 | 0.24 | 4.28 | 7.5 | 19.3 | (80) fold | 0.24 | (54) fold | 107 | 107 ± 7 | 1.99 | 1.99 | 24.6 | 24.6 | (103) fold | 4.28 | (18) fold | 7.5 | (31) fold | –
6 | COc1ccc2nc(C(C)C)c(O[C@@H]3C[C@H]4C(=O)N[C@]5(C(=O)NS(=O)(=O)C6(C)CC6)C[C@H]5/C=C\CCCCC[C@H](NC(=O)OC5CCCC5)C(=O)N4C3)nc2c1 [Compound 23e, Cyclopentyl ((2R,6S,13aS,14aR,16aS,Z)-2-((3-isopropyl-7-methoxyquinoxalin-2-yl)oxy)-14a-(((1-methylcyclopropyl)sulfonyl)carbamoyl)-5,16-dioxo-1,2,3,5,6,7,8,9,10,11,13a,14,14a,15,16,16a-hexadecahydrocyclopropa[e]pyrrolo[1,2-a][1,4]diazacyclopentadecin-6-yl)carbamate] | 18.2 | 0.59 | 6.83 | 7.91 | 18.2 | (31) fold | 0.59 | (116) fold | 156 | 156 ± 17 | 1.34 | 1.34 | 27.6 | 27.6 | (47) fold | 6.83 | (12) fold | 7.91 | (13) fold | –
